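96-well plates; 48 h exposure; 5 concentrations. Endpoints by linear interpolation between flanking doses. Not reached: highest tested concentration assigned. GI50 marks 50% less growth. TGI: concentration producing complete growth inhibition.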 Where a SMILES comes first, the peptide text is derived from it. Peptide text beside a SMILES is read from it. [ ]: non-standard residue; d: D form. The star is where a group is joined. * marks the point of attachment. Phe(4-NO2) = N[CH](Cc1ccc([N+](=O)[O-])cc1)C(=O)O; Palmitoyl = CCCCCCCCCCCCCCCC(=O)*; Boc = CC(C)(C)OC(=O)*; OtBu = CC(C)(C)O*

This note sets out measurements from PubChem BioAssay (NCI).

What all share (assay): NCI-60 cell line screen, 48 h
Experiment [1] relates to SNB-19 CNS.
In experiment [2] the test system is OVCAR-3 ovarian.
The test system of experiment [3] is SF-295 CNS.
In experiment [4] the test system is SF-539 CNS.
The test system of experiment [5] is A498 renal.
Experiment [6] relates to OVCAR-4 ovarian.
In experiment [7] the test system is U251 CNS.
Experiment [8] relates to HOP-92 NSCLC.
Experiment [9] has as its system COLO 205 colon.
The test system of experiment [10] is SN12C renal.

Consider `CCC1(O)CN(CCOC)[C@H]2C[C@@H]1C(=O)c1[nH]c3ccccc3c12` (stereo partly specified), for which the TGI in experiment [1], in experiment [2], in experiment [3], in experiment [4], in experiment [5] and in [6] was greater than 100 µM in each case. In addition, the TGI in [7], in experiment [8], in experiment [9] and in experiment [10] was greater than 100 µM each time.
`O=C(NCCCCl)c1c(O)c2ccccc2[nH]c1=O`: the TGI in experiment [1] is greater than 100 µM; in experiment [2], greater than 100 µM; in experiment [3] it was greater than 82.5 µM; in experiment [4], greater than 100 µM; in experiment [5], greater than 100 µM; in experiment [6], greater than 100 µM. The TGI in experiment [7] was greater than 100 µM; in [8], greater than 75.7 µM; in experiment [9] it was greater than 100 µM; in experiment [10], greater than 100 µM.
As for `CSCCC(NC(=O)C(CC(C)C)NC(=O)CNC(=O)OC(C)(C)C)C(=O)N(C)C` (stereo not drawn) (Boc-Gly-Leu-Met-NMe2; configuration not given here), the TGI in [1], in experiment [3], in experiment [4], in [5], in [6] and in experiment [7] was greater than 100 µM each time. Besides, the TGI in [8], in experiment [9] and in [10] was greater than 100 µM each time.
`COC(=O)c1ccc(OCc2ccc3nc(-c4ccccc4)c(Cl)nc3c2)cc1`: the TGI in experiment [1], in experiment [2], in experiment [3], in [4], in [5] and in [6] was greater than 100 µM each time. In addition, the TGI in [7], in experiment [8], in experiment [9] and in [10] was greater than 100 µM each time.
Turning to `COC1=CC2(C=CC1=O)CCN=c1c(O)c3c(c(O)c12)=NC=N3` (stereo unspecified), the TGI in experiment [1], in experiment [2], in experiment [3], in [4], in experiment [5] and in experiment [6] was greater than 100 µM each time. For the same compound, the TGI in [7], in experiment [8], in [9] and in experiment [10] was greater than 100 µM each time.
Consider `COc1cc2c(cc1OC)C1Cc3ccccc3CN1CCC2` (stereo unspecified), for which the TGI in experiment [1], in experiment [2], in experiment [3], in [4], in [5] and in [6] was greater than 100 µM in each case. Further, the TGI in experiment [7], in experiment [8], in [9] and in experiment [10] was greater than 100 µM in each case.
On to `COC(=O)C(Cc1ccc([N+](=O)[O-])cc1)NC(=O)C(CC(=O)OC(C)(C)C)NC(=O)OC(C)(C)C` (stereo unspecified) (Boc-Asp(OtBu)-[Phe(4-NO2)]-OMe; configuration not given here), for which the TGI in [1], in experiment [2], in experiment [3], in experiment [4], in experiment [5] and in [6] was greater than 100 µM in each case. The TGI in experiment [7], in experiment [8], in experiment [9] and in experiment [10] was greater than 100 µM in each case.
Consider `COC(=O)CNC(=O)/C=C/[C@H](O[Si](C)(C)C(C)(C)C)[C@H](/C=C/C(=O)NCC(=O)OC)O[Si](C)(C)C(C)(C)C`, for which the TGI in experiment [1], in experiment [2], in experiment [3], in experiment [4], in [5] and in experiment [6] was greater than 25 µM each time. The TGI in [7], in experiment [8], in experiment [9] and in [10] was greater than 25 µM each time.
On to `O=C(CCCN1CCc2[nH]c3cc(F)ccc3c2C1)c1ccc(F)cc1`, for which the TGI is greater than 100 µM in experiment [1]; 28.1 µM in [2]; 32.7 µM in [3]; 30.5 µM in experiment [4]; 24.4 µM in experiment [5]; 26.9 µM in experiment [6]. The TGI was found to be 29.8 µM in experiment [7], 8.59 µM in experiment [8], 17.1 µM in experiment [9] and 27.7 µM in experiment [10].
Regarding `C/C(=N\O)c1ccc(Nc2c3ccccc3nc3occc23)cc1`, the TGI in experiment [1] is greater than 50 µM; in experiment [2], greater than 50 µM; in experiment [3], 5.26 µM; in [4] it was 0.732 µM; in experiment [5], greater than 10 µM; in experiment [6], greater than 12.2 µM. Further, the TGI in experiment [7] was greater than 24.6 µM; in experiment [8], greater than 50 µM; in [9] it was 0.65 µM; in experiment [10], greater than 50 µM.
For `COc1cccc(N2N=C3c4ccccc4-n4c(nc5ccccc54)C3C2N)c1` (stereo unspecified), the TGI in experiment [1], in experiment [2], in experiment [3], in experiment [4], in experiment [5] and in experiment [6] was greater than 100 µM in each case. Further, the TGI in [7], in experiment [8], in [9] and in experiment [10] was greater than 100 µM each time.
As to `CSc1s[s+]c(SC)c1-c1ccccc1`, the TGI in experiment [1] was 35.1 µM; in experiment [2], 37.6 µM; in experiment [3], 36.9 µM; in experiment [4], 32.4 µM; in experiment [5], 47.3 µM; in experiment [6], 17.9 µM. For the same compound, the TGI in experiment [7] worked out at 41.1 µM; in experiment [8], 33.6 µM; in experiment [9], 32.4 µM; in experiment [10], 35 µM.
For the compound `CCOC(=O)C(Cc1c(-c2[nH]c3ccccc3c2CC(NC(=O)CNC(C)=O)C(=O)OCC)[nH]c2ccccc12)NC(=O)CNC(C)=O` (stereo unspecified), the TGI in [1], in experiment [2], in experiment [3], in experiment [5], in experiment [6] and in experiment [7] was greater than 100 µM each time. Also, the TGI in [8] was 85.2 µM; in [9], 35.4 µM; in [10], greater than 100 µM.
On to `c1ccc(C/C(=N\Nc2nc3ccccc3o2)c2ccccn2)cc1`, for which the TGI in experiment [1] worked out at 20.5 µM; in experiment [2], 0.0301 µM; in experiment [3] it was 3.25 µM; in experiment [4], 1.21 µM; in experiment [5] it was 1.69 µM; in experiment [7] it was 5.32 µM. For the same compound, the TGI stood at 0.268 µM in [8], 0.0114 µM in experiment [9] and 3.67 µM in experiment [10].
Take `CN1C(=O)[C@@]2(C=CC3(CC2)OCCO3)c2ccccc21`: the TGI in [1], in experiment [2], in [3], in experiment [5], in [6] and in experiment [7] was greater than 50 µM each time. In addition, the TGI in experiment [8], in experiment [9] and in experiment [10] was greater than 50 µM throughout.
`Clc1ccccc1C1=NN(c2ccccc2)C2c3cc(Br)ccc3OCC12` (stereo unspecified): the TGI in experiment [1], in experiment [2], in experiment [3], in experiment [4], in [5] and in experiment [7] was greater than 100 µM each time. Also, the TGI in experiment [8] and in experiment [9] was greater than 100 µM in each case.
Turning to `CCCCCCCCCCCCCCCC(=O)NC(CCCCN)C(=O)NCC(=O)NC(Cc1ccccc1)C(=O)N1CCCC1C(=O)NC(CO)C(=O)NC(Cc1ccc(O)cc1)C(=O)NC(CCCCN)C(=O)NC(CC(C)C)C(=O)NC(CCCN=C(N)N)C(=O)N1CCCC1C(=O)NCC(N)=O` (stereo unspecified) (Palmitoyl-KGFPSYKLRPG-NH2; configuration not given here), the GI50 in [1] was 26.6 µM; in [2], 28.6 µM; in [3] it was 27.1 µM; in [4], 21.1 µM; in [5] it was 34.2 µM; in experiment [6] it was 30.5 µM. The figures for the GI50 in experiment [8] and in experiment [9] were 19.3 µM and 19.6 µM, respectively. Besides, the TGI was 54.9 µM in experiment [1]; 76.5 µM in experiment [2]; 72.6 µM in [3]; 48.1 µM in experiment [4]; greater than 100 µM in experiment [5]; 78.7 µM in experiment [6]. Also, the TGI in [8] turned out to be 45.4 µM; in experiment [9], 41.1 µM.
For `COc1cc2cc3c4c(cc(OC)c(OC)c4c2cc1OC)CCN3C(=O)OCCBr`, the TGI in experiment [1], in [2], in [3], in [4], in [5] and in experiment [7] was greater than 100 µM throughout. Further, the TGI in experiment [8], in [9] and in experiment [10] was greater than 100 µM in each case.
Consider `COC1(OC)N=C(N)C2(C#N)/C(=N/N(C)C)CC(C)C12C#N` (stereo unspecified), for which the TGI in experiment [1], in experiment [3], in [4], in experiment [5], in experiment [7] and in experiment [8] was greater than 100 µM each time. Also, the TGI in experiment [9] and in [10] was greater than 100 µM each time.
`COc1ccc([C@@]23CCC(=O)C[C@@H]2N(C)CC3)cc1OC`: the TGI in [1], in experiment [2], in experiment [3], in experiment [4], in experiment [5] and in experiment [6] was greater than 100 µM throughout. Moreover, the TGI in experiment [7], in [8] and in [9] was greater than 100 µM in each case.
On to `CC(C)CC1c2[nH]c3ccccc3c2C[C@H]2C(=O)NC(COC(C)(C)C)C(=O)N12` (stereo partly specified), for which the TGI was greater than 100 µM in [1]; 16.3 µM in experiment [2]; 35 µM in experiment [3]; greater than 100 µM in experiment [5]; greater than 100 µM in [6]; 41 µM in [7]. Moreover, the TGI in experiment [8] came out at 74.7 µM; in experiment [9] it was 38.8 µM; in experiment [10] it was 47.9 µM.
As for `CC(=O)OCC1OC(n2c3c(c(-c4ccco4)c(C#N)c2=S)CCCC3)C(OC(C)=O)C(OC(C)=O)C1OC(C)=O` (stereo unspecified), the TGI in [1] is 26.2 µM; in experiment [2], greater than 31.6 µM; in experiment [3] it was 21.5 µM; in [4], greater than 31.6 µM; in experiment [5], 22.1 µM; in [6], greater than 31.6 µM. Also, the TGI in [8] was 19.3 µM; in experiment [9], greater than 31.6 µM; in experiment [10], greater than 31.6 µM.
Regarding `CC1=CC(c2ccccc2)n2c(nc3cc4ccccc4cc32)N1` (stereo unspecified), the TGI in experiment [1], in experiment [2], in experiment [3], in [4], in [5] and in [6] was greater than 100 µM throughout. Also, the TGI in experiment [7], in experiment [8] and in experiment [9] was greater than 100 µM throughout.
Take `O=C(CCN1CCCCC1CO)Nc1ccc2c(c1)C(=O)c1ccc(NC(=O)CCN3CCCCC3CO)cc1C2=O` (stereo unspecified): the TGI in experiment [1] worked out at 31.2 µM; in experiment [3], 62.6 µM; in experiment [4], 16.1 µM; in [5], 9.87 µM; in [6], 27.1 µM; in [7] it was 20.6 µM. For the same compound, the TGI was found to be 37.2 µM in [8], 21.7 µM in experiment [9] and 25.5 µM in experiment [10].
In the case of `COc1cc(/C=C2\C[C@H]3[C@@H]4CC=C5C[C@@H](N6CCCC6)CC[C@]5(C)[C@H]4CC[C@]3(C)[C@H]2OC(C)=O)cc(OC)c1OC`, the TGI in experiment [1] worked out at 34.2 µM; in experiment [2], 29.8 µM; in experiment [3], 26.5 µM; in [5], 28.7 µM; in experiment [6], 34.8 µM; in [7], 29.2 µM. The TGI amounted to 22.3 µM in [8], 25.6 µM in experiment [9] and 27.8 µM in experiment [10].
